# Experimental data taken from patent publication US6821442B1, “Method and apparatus for control of aquatic vertebrate and invertebrate invasive species” (priority 2002, dated 2004).
# Like-named read-outs stand apart in the source and are kept apart here.
# Experiments:
# zebra mussels [1] = details: 25° C., cited from earlier work
# [2] = test system: Asian clam (Corbicula fluminea); experiment: LT50 of Asian clam exposed to supersaturated gas, standard laboratory methods (APHA 1995); type: in vivo
# Excerpt: Gas supersaturation (ΔP>0) with CO2, air or combustion off-gas is established and maintained for a time period shown to cause a selected mortality rate within the population of the target species. We have established LT50 values (LT50 is defined as the time to kill 50 per cent of a targeted species) for the Asian clam (Corbicula fluminea) exposed to elevated concentrations of carbon dioxide and a simulated combustion gas mixture ([…]; N2=85.7%; CO2=13.6%; SO2=0.284%). The LT50 values were established using standard laboratory methods (APHA 1995). With carbon dioxide exposure, LT50 was described by the model (R^2=0.86):
# LT50 values decreased from a high of 270 min at 260 mm Hg PCO2 to a low of 90 min at 2070 mm Hg gage pressure. This later value represents a 27 fold decrease in LT50 below that established by McMahon et al (1995) at a PCO2 of 760 mm Hg (absolute pressure). Combustion gas requires longer exposure periods given a lower XCO2. The LT50 at a operating pressure of 2070 mm Hg is about 350 min. […] Lower levels of LT50 are anticipated for fish and other aquatic exotics of concern.
# Asian clams = details: cited from earlier work
# zebra mussels [3] = details: cited from earlier work
smiles,measurement,setting,value
O=C=O [carbon dioxide],LT50,"zebra mussels [1]; PCO2 75 torr, zebra mussels",78 h
same,mortality,"zebra mussels [1]; PCO2 75 torr, zebra mussels",complete mortality
same,effect on byssal threads,zebra mussels [1]; PCO2 of 38 torr,detachment of byssal threads and inhibition of byssal thread formation
same,LT50,"[2]; 260 mm Hg PCO2, Asian clam",270 min
same,fold decrease in LT50 below that of McMahon et al at PCO2 760 mm Hg (absolute pressure),[2]; 2070 mm Hg gage pressure,27 fold
same,LT50,"[2]; 2070 mm Hg gage pressure, Asian clam",90 min
same,concentration causing toxicity,Asian clams,500 mg/L
same,concentration inducing a narcotizing effect,Asian clams,100 mg/L
same,LC50,"zebra mussels [3]; 48 h, 18° C.",196 µg/mL
same,LC50,"zebra mussels [3]; 48 h, 22° C.",290 µg/mL
same,LC50,"zebra mussels [3]; 96 h, 18° C.",74 µg/mL
same,LC50,"zebra mussels [3]; 96 h, 22° C.",81 µg/mL
same,exposure period after which sub-lethal narcotizing effects (gaping response) were induced,zebra mussels [3],4 h
